Values of other authors as cited in patent US20220184030A1, “N-Phenylacetyl-L-prolylglycine ethyl ester compositions and methods for using the same” (priority 2020, published 2022).
Read-outs that look alike come from different tables or passages of the source. Residues, ends and D or L forms follow the SMILES beside them. *: point of attachment. PhAc = O=C(Cc1ccccc1)*

How the values were obtained:
[1] = users
[2] = not given; remark: listed apart in the source

## C=C(C)[C@@H]1CCC(C)=C[C@H]1c1c(O)cc(CCCCC)cc1O [CBD, cannabidiol]
[1]
  tolerance or addiction to the compound: neither noopept nor CBD has been shown to cause the user to become tolerant or addicted
  tolerance to the nootropic effects: generally do not develop a tolerance
Humans who consume effective doses
  side effects: generally does not cause significant side effects

## CCOC(=O)CNC(=O)[C@@H]1CCCN1C(=O)Cc1ccccc1 [noopept, N-Phenylacetyl-L-prolylglycine ethyl ester] (PhAc-Pro-Gly-OEt)
[1]
  tolerance or addiction to the compound: neither noopept nor CBD has been shown to cause the user to become tolerant or addicted
  tolerance to the nootropic effects: generally do not develop a tolerance
[2]; versus piracetam
  effective dose relative to the effective dose of piracetam: over 50 times smaller in mass
[2]; versus some racetams, such as piracetam
  effective dose compared with racetams (in words): smaller effective dose than some racetams
Healthy human subjects, compared with piracetam
  side effects: fewer side effects
